Results from PubChem BioAssay (NCI).
Several values for one entry are separate records, joined by “and”; a condition that tells them apart may be missing. Equal entries are not always repeated.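 Growth conditions: 96-well plates. Treatment: test compound, 48 hours, 5 concentrations. Analysis: linear interpolation between bracketing concentrations; unreached endpoints set to highest concentration. GI50: concentration for 50% inhibition of growth. TGI denotes the concentration required for complete inhibition of growth.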

What was measured:
Experiment in all cases: NCI anticancer screen, dose series, 48 h
SK-OV-3 ovarian = tested on: SK-OV-3 ovarian
NCI-H522 lung = tested on: NCI-H522 lung
LOX IMVI melanoma = tested on: LOX IMVI melanoma
OVCAR-4 ovarian = tested on: OVCAR-4 ovarian
SK-MEL-28 melanoma = tested on: SK-MEL-28 melanoma
KM12 colon = tested on: KM12 colon
HOP-62 NSCLC = tested on: HOP-62 NSCLC
M14 melanoma = tested on: M14 melanoma
BT-549 breast = tested on: BT-549 breast
EKVX NSCLC = tested on: EKVX NSCLC
COLO 205 colon = tested on: COLO 205 colon
T-47D breast = tested on: T-47D breast
MDA-MB-435 = tested on: MDA-MB-435
A498 renal = tested on: A498 renal
SN12C renal = tested on: SN12C renal
786-0 renal = tested on: 786-0 renal
OVCAR-8 ovarian = tested on: OVCAR-8 ovarian
CCRF-CEM leukemia = tested on: CCRF-CEM leukemia
SK-MEL-2 melanoma = tested on: SK-MEL-2 melanoma
HCT-15 colon = tested on: HCT-15 colon
OVCAR-3 ovarian = tested on: OVCAR-3 ovarian
NCI-H226 lung = tested on: NCI-H226 lung
NCI/ADR-RES ovarian = tested on: NCI/ADR-RES ovarian
MALME-3M melanoma = tested on: MALME-3M melanoma
HCT-116 colon = tested on: HCT-116 colon
SK-MEL-5 melanoma = tested on: SK-MEL-5 melanoma
HT29 colon = tested on: HT29 colon
UACC-62 melanoma = tested on: UACC-62 melanoma
HS 578T breast = tested on: HS 578T breast
SW-620 colon = tested on: SW-620 colon
SF-295 CNS = tested on: SF-295 CNS
PC-3 prostate = tested on: PC-3 prostate
RXF 393 renal = tested on: RXF 393 renal
HOP-92 NSCLC = tested on: HOP-92 NSCLC
A549 NSCLC = tested on: A549 NSCLC
DU-145 prostate = tested on: DU-145 prostate
SR leukemia = tested on: SR leukemia
MCF7 breast = tested on: MCF7 breast
NCI-H23 lung = tested on: NCI-H23 lung
SNB-19 CNS = tested on: SNB-19 CNS
TK-10 renal = tested on: TK-10 renal
NCI-H460 lung = tested on: NCI-H460 lung
MOLT-4 leukemia = tested on: MOLT-4 leukemia
IGROV1 ovarian = tested on: IGROV1 ovarian
UACC-257 melanoma = tested on: UACC-257 melanoma
ACHN renal = tested on: ACHN renal
SF-539 CNS = tested on: SF-539 CNS
HCC-2998 colon = tested on: HCC-2998 colon
OVCAR-5 ovarian = tested on: OVCAR-5 ovarian
UO-31 renal = tested on: UO-31 renal
MDA-MB-231 breast = tested on: MDA-MB-231 breast
U251 CNS = tested on: U251 CNS
HL-60(TB) leukemia = tested on: HL-60(TB) leukemia
K-562 leukemia = tested on: K-562 leukemia
RPMI-8226 leukemia = tested on: RPMI-8226 leukemia
SF-268 CNS = tested on: SF-268 CNS

In the case of `c1ccc2cc(C[n+]3ccn(Cc4ccc5ccccc5n4)c3)ccc2c1`, the GI50 (SK-OV-3 ovarian) is reported as 0.671 µM and 3.64 µM, the TGI (SK-OV-3 ovarian) is reported as 4.3 µM and 17.7 µM and the GI50 (NCI-H522 lung) is reported as 0.275 µM and 2.3 µM. The GI50 (LOX IMVI melanoma) was 0.435 µM and 2.9 µM, the TGI (LOX IMVI melanoma) was 1.68 µM and 11.4 µM and the GI50 (OVCAR-4 ovarian) was 0.26 µM and 1.43 µM. The TGI (OVCAR-4 ovarian) was 4.8 µM and 15.2 µM, the GI50 (SK-MEL-28 melanoma) was 0.325 µM and 2.78 µM and the TGI (SK-MEL-28 melanoma) was 1.35 µM and 13 µM. For the same compound, the GI50 (KM12 colon) was 0.384 µM and 2.25 µM, the TGI (KM12 colon) was 1.74 µM and 7.56 µM and the GI50 (HOP-62 NSCLC) was 1.4 µM and 5.05 µM. For the same compound, the TGI (HOP-62 NSCLC) was 7.02 µM and 20.3 µM, the GI50 (M14 melanoma) was 0.727 µM and 3.26 µM and the TGI (M14 melanoma) was 4.55 µM and 17.1 µM. For the same compound, the GI50 (BT-549 breast) was 0.347 µM and 2.54 µM, the TGI (BT-549 breast) was 1.51 µM and 8.46 µM and the TGI (EKVX NSCLC) was 7.34 µM and 31.4 µM. For the same compound, the GI50 (COLO 205 colon) was 0.239 µM and 1.72 µM, the TGI (COLO 205 colon) was 0.738 µM and 5.07 µM and the GI50 (T-47D breast) was 0.239 µM and 2.32 µM. For the same compound, the GI50 (MDA-MB-435) was 0.312 µM and 2.46 µM, the TGI (MDA-MB-435) was 1.31 µM and 10.6 µM and the GI50 (A498 renal) was 0.492 µM and 2.49 µM. For the same compound, the TGI (A498 renal) was 3.9 µM and 24.1 µM, the GI50 (SN12C renal) was 0.347 µM and 2.82 µM and the TGI (SN12C renal) was 6.15 µM and 11 µM. The GI50 (786-0 renal) was 2.73 µM and 10.6 µM, the TGI (786-0 renal) was 13 µM and 24.8 µM and the GI50 (OVCAR-8 ovarian) was 0.754 µM and 3.72 µM. For the same compound, the TGI (OVCAR-8 ovarian) was 10.5 µM and 15 µM, the GI50 (CCRF-CEM leukemia) was 0.728 µM and 3.64 µM and the TGI (CCRF-CEM leukemia) was 11 µM and 16.4 µM. For the same compound, the GI50 (SK-MEL-2 melanoma) was 0.381 µM and 2.44 µM, the TGI (SK-MEL-2 melanoma) was 1.8 µM and 8.98 µM and the GI50 (HCT-15 colon) was 12.3 µM and 53.5 µM. The TGI (HCT-15 colon) was 27.7 µM and > 100 µM, the GI50 (OVCAR-3 ovarian) was 0.316 µM and 2.15 µM and the TGI (OVCAR-3 ovarian) was 1.98 µM and 13.2 µM. For the same compound, the GI50 (NCI-H226 lung) was 1.06 µM and 4.51 µM, the TGI (NCI-H226 lung) was 4.87 µM and 21.6 µM and the GI50 (NCI/ADR-RES ovarian) was over 100 µM. The TGI (NCI/ADR-RES ovarian) was over 100 µM, the GI50 (MALME-3M melanoma) was 0.235 µM and 1.36 µM and the TGI (MALME-3M melanoma) was 0.811 µM and 6.35 µM. The GI50 (HCT-116 colon) was 0.413 µM and 3.29 µM, the TGI (HCT-116 colon) was 6.86 µM and 15.8 µM and the GI50 (SK-MEL-5 melanoma) was 0.216 µM and 1.21 µM. The TGI (SK-MEL-5 melanoma) was 0.532 µM and 2.5 µM, the GI50 (HT29 colon) was 0.366 µM and 2.55 µM and the TGI (HT29 colon) was 3.01 µM and 14.3 µM. For the same compound, the GI50 (UACC-62 melanoma) was 0.374 µM and 1.91 µM, the TGI (UACC-62 melanoma) was 1.5 µM and 5.94 µM and the GI50 (HS 578T breast) was 1.25 µM and 4.49 µM. For the same compound, the TGI (HS 578T breast) was 12.2 µM and 20.3 µM, the GI50 (SW-620 colon) was 0.734 µM and 6.27 µM and the TGI (SW-620 colon) was 11.8 µM and 22.1 µM. For the same compound, the GI50 (SF-295 CNS) was 0.71 µM and 4.46 µM, the TGI (SF-295 CNS) was 4.98 µM and 18.7 µM and the GI50 (PC-3 prostate) was 0.342 µM and 2.39 µM. For the same compound, the TGI (PC-3 prostate) was 3.18 µM and 13.9 µM, the TGI (RXF 393 renal) was 3.23 µM and 19.7 µM and the GI50 (HOP-92 NSCLC) was 0.184 µM and 1.66 µM. For the same compound, the TGI (A549 NSCLC) was 14.1 µM and 24.2 µM, the TGI (DU-145 prostate) was 12.4 µM and 22.4 µM and the GI50 (SR leukemia) was 0.364 µM and 2.82 µM. The TGI (SR leukemia) was 2.16 µM and 13.7 µM, the GI50 (MCF7 breast) was 0.353 µM and 2.98 µM and the TGI (MCF7 breast) was 2.36 µM and 13.4 µM. The GI50 (NCI-H23 lung) was 0.311 µM and 2.7 µM, the TGI (NCI-H23 lung) was 3.23 µM and 14.6 µM and the GI50 (SNB-19 CNS) was 0.338 µM and 3.05 µM. The TGI (SNB-19 CNS) was 11 µM and 13.2 µM, the GI50 (TK-10 renal) was 1.71 µM and 10.4 µM and the TGI (TK-10 renal) was 6.47 µM and 23.8 µM. For the same compound, the GI50 (NCI-H460 lung) was 0.456 µM and 3.74 µM, the TGI (NCI-H460 lung) was 10.8 µM and 14.6 µM and the GI50 (MOLT-4 leukemia) was 0.488 µM and 3.19 µM. The TGI (MOLT-4 leukemia) was 5.04 µM and 14.7 µM, the GI50 (IGROV1 ovarian) was 0.481 µM and 2.22 µM and the TGI (IGROV1 ovarian) was 3.19 µM and 9.03 µM. For the same compound, the GI50 (UACC-257 melanoma) was 0.28 µM and 2.7 µM, the GI50 (ACHN renal) was 5.54 µM and the TGI (ACHN renal) was 18.5 µM. The GI50 (SF-539 CNS) was 0.421 µM and 2.72 µM, the TGI (SF-539 CNS) was 11.4 µM and 13.8 µM and the GI50 (HCC-2998 colon) was 0.389 µM and 2.65 µM. For the same compound, the TGI (HCC-2998 colon) was 3.76 µM and 12.7 µM, the GI50 (OVCAR-5 ovarian) was 0.588 µM and 3.58 µM and the TGI (OVCAR-5 ovarian) was 9.52 µM and 16.7 µM. The GI50 (UO-31 renal) was 10.6 µM and 35.8 µM, the TGI (UO-31 renal) was 25.4 µM and > 100 µM and the GI50 (MDA-MB-231 breast) was 0.432 µM and 2.22 µM. The TGI (MDA-MB-231 breast) was 1.97 µM and 8.2 µM, the GI50 (U251 CNS) was 0.406 µM and 3.19 µM and the TGI (U251 CNS) was 12.4 µM and 15.2 µM. The GI50 (HL-60(TB) leukemia) was 0.214 µM and 0.827 µM, the TGI (HL-60(TB) leukemia) was 0.653 µM and 3.05 µM and the GI50 (K-562 leukemia) was 0.585 µM and 1.7 µM. For the same compound, the TGI (K-562 leukemia) was 13.8 µM and 14.8 µM, the GI50 (RPMI-8226 leukemia) was 0.196 µM and 0.876 µM and the GI50 (SF-268 CNS) was 0.434 µM and 3.79 µM. The TGI (SF-268 CNS) was 11.3 µM and 18.3 µM.
